Paper PMC10892409, “Exploring Ocimum basilicum’s Secondary Metabolites: Inhibition and Molecular Docking against Rhynchophorus ferrugineus for Optimal Action” (Plants, 2024)
Values after ≈ are worked out from the molar mass of the structure shown. Values joined by “and” are separate entries in the source; they are usually repeats but may differ in a detail not shown here. Equal values may be shown once. Read-outs that look alike come from different tables or passages of the source.

Legend:
ACPs [1] = experiment: In vivo ACP inhibition in treated fourth-instar larvae; set-up: species or system Rhynchophorus ferrugineus; conditions: fourth-instar larvae treated 24 h
Procedure: (§1) Activities of ACPs and ALPs were evaluated using a modified version of the Asakura technique. The ACP test required incubating 100 μL of crude enzyme in a buffer of 650 μL of sodium acetate (pH: 5.0; 50 mM with ACPs) or 250 μL of Tris–HCl (at 50 mM; pH: 8.0 with ALPs) and p-nitrophenyl phosphate (5.5 mM). For 30 min; the various mixes were kept at 37 °C for incubation. Thereafter, 500 μL of NaOH (0.5 N) stopped the reaction. Using an ELISA plate reader, we determined the mixture’s 415 nm absorbance value (Multiskan SkyHigh Microplate Spectrophotometer). The ACP- and ALP-specific activity was estimated as OD 415/mg protein·h.
(§2) Each enzyme’s in vivo impact was measured after treating larvae with an extract or pure chemicals. An inhibitor-free test combination served as a negative control. We determined the absorbance of the enzymes throughout a spectrum of wavelengths using a rapid reader for ELISA plates (Multiskan SkyHigh Microplate Spectrophotometer). Extracts and pure chemicals were used to treat R. ferrugineus larvae at previous serial concentrations, and their AChE, ACP, ALP, and GABA-T activity was tested in vivo using the methods outlined above. Larvae spent a day on leaf disks treated with chemicals or extract.

ACPs [2] = experiment: In vitro ACP inhibition, larval homogenate; type: biochemical, Rhynchophorus ferrugineus; conditions: fourth-instar larvae preparation
Procedure: (§3) The R. ferrugineus were homogenized larvae in a buffer (sodium phosphate, 40 mM, and pH 7.4); then, sodium chloride (10 mM dissolved in 1% (w/v) triton X-100) was added. During centrifugation (Sigma 3–30 KS), the homogenate was chilled to 4 °C and spun at a speed of 5000 rpm (20 min). The supernatant was either immediately put into action for an enzymatic test or frozen and kept at […] for later use. Each test was repeated three times. The protein content was determined using the same protocol employed by Lowry with modification using protein extract (100 µL) combined with an alkaline copper solution and a Folin–Ciocalteu phenol reagent (2 mL and 200 µL, respectively). The intensity of the resulting blue hue was evaluated during 30 min of incubation at 25 °C. Using an ELISA plate reader and a BSA standard curve, we could calculate the protein concentration by analyzing the absorbance at 600 nm (Multiskan SkyHigh Microplate Spectrophotometer, Thermo Fisher Scientific, Waltham, MA, USA).
as §1

AChE [3] = experiment: In vivo AChE inhibition in treated fourth-instar larvae; set-up: species or system Rhynchophorus ferrugineus; conditions: fourth-instar larvae treated 24 h
Procedure: (§4) The enzyme AChE was assessed using a substrate of acetylthiocholine iodide and evaluated using 5,5′-dithiobis [2-nitrbenzoic acid] (DTNB), according to [94]. Each well contained a sodium phosphate buffer (140 µL) (pH: 8.0; 100 mM), DTNB (10 µL), extract (20 µL)/components at 1, 10, 50, 100, and 1000 µg/mL in DMSO and underwent 15 min of incubation at 25 °C. Acetylthiocholine (ATCh) was added to start the reaction (10 µL). The ATCh enzymatic hydrolysis produced a 5-thio-2-nitrobenzoate anion as a color (yellow) that was detected by measuring its wavelength, i.e., 412 nm, thereby allowing the researchers to track the rate of ATCh hydrolysis (15 min). Each response was performed three times on a microplate and examined using an ELISA plate reader to determine the 412 nm absorbance of the combination (Multiskan SkyHigh Microplate Spectrophotometer). The AChE-specific activity was measured as OD412/mg protein.h. based on observing the effect of raising the quantities of all of these compounds during the tests on the inhibition results, and the inhibitory concentration (IC50) was calculated. Then, a computer algorithm was used to determine the IC50 values (Version 9.01 of GraphPad Prism by Inc., 2020, San Diego, CA, USA).
as §2

AChE [4] = experiment: In vitro AChE inhibition, larval homogenate (Ellman); type: biochemical, Rhynchophorus ferrugineus; conditions: fourth-instar larvae preparation
Procedure: as §3, §4

ALPs [5] = experiment: In vitro ALP inhibition, larval homogenate; type: biochemical, Rhynchophorus ferrugineus; conditions: for IC50 ALPs in vitro: fourth-instar larvae preparation
Procedure: as §3, §1

[6] = tested on: fourth-instar larvae of R. ferrugineus; experiment: Topical application (contact) to fourth-instar larvae (probit LD50); type: in vivo, Rhynchophorus ferrugineus; conditions: after 1 day of treatment, 95% confidence limits in brackets
Procedure: (§5) Over the course of 40 days, an O. basilicum cell suspension was cultivated in this investigation, and then the extract was obtained. […] Long segments of sugarcane stem were employed in the insect breeding lab at King Faisal University’s Research and Training Center to raise adult R. ferrugineus larvae. For this experiment, we used a topical application technique with larvae stored at 4 °C for five minutes to test the extract’s activity. Using a hand-operated micro-applicator (Burkard Manufacturing Co., Ltd., Hertfordshire, UK, collected using a […] micro-syringe), extracts at escalating ratios (10 µL) were injected into the dorsal surface of the larvae (Ito Corp.; MS-N50, Shizuoka, Japan). Five larvae per box in a series of three replicates were fed on sugarcane stem pieces measuring 10 cm in length. The LD50 was calculated by measuring the percentage of dead larvae at 24, 48, 72, and 96 h following a topical application. The antifeedant impact was determined in adults by giving them 10 cm sugarcane stem segments cut in half longitudinally. Long strips of sugarcane stem (32 cm^2) were immersed in the previous serial extract and compound concentration (10 mL) for ten seconds before they were dried in ambient air using a plastic box. Each box included a new pair of larvae (a male and a female). Ten sets of each treatment were performed. Data on how well the subjects ate were evaluated at 24, 48, 72, and 96 h.
(§6) The tissue culture parameters were calculated quantitatively from three independent sets of samples, and the mean SD was used to describe the findings. Toxicity parameters were determined quantitatively using a 10-replicate sample, and means and standard deviations were used to present the data. The median dosage obtained from a dose–response regression was used to calculate the LC50 value. By analyzing the comparative growth rate vs. the crude extract logarithm using least squares regression, the range of LC50 was calculated with 95% confidence. A simple variance study was performed on the increased weight and enzymatic activity data (ANOVA). The distinction between the means was accomplished using the Student–Newman–Keuls (SNK) test. Additionally, SPSS version 25 was used to find p < 0.05 significant deviations from the mean.

R. ferrugineus adults = experiment: Antifeedant/insecticidal test on adults with treated sugarcane stem (probit LC50); type: in vivo, Rhynchophorus ferrugineus; conditions: after 1 day of treatment, 95% confidence limits in brackets
Procedure: as §5, §6

ALPs [7] = experiment: In vivo ALP inhibition in treated fourth-instar larvae; set-up: species or system Rhynchophorus ferrugineus; conditions: fourth-instar larvae treated 24 h
Procedure: as §1, §2

GABA-T [8] = target: T1, GABA-T (Rhynchophorus ferrugineus, UniProt A0A834I2E4); experiment: In vivo GABA-T inhibition in treated fourth-instar larvae; conditions: fourth-instar larvae treated 24 h
T1 sequence (A0A834I2E4 28-494): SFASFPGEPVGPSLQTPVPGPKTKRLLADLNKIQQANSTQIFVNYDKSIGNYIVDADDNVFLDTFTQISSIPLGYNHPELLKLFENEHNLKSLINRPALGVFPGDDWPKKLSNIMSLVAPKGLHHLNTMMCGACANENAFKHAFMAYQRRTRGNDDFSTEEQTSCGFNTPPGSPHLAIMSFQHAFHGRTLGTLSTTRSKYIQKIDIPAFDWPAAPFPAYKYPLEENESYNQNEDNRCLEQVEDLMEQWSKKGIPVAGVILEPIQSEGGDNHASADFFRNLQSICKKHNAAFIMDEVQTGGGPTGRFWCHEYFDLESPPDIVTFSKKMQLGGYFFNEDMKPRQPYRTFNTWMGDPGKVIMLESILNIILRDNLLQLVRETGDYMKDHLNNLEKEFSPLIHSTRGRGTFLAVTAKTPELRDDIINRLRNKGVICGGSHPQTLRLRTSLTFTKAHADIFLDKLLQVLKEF
Procedure: The enzyme crude extract (25 μL) added to a solution included Tris-HCl, α-ketoglutarate, 2-mercaptoethanol, β-NAD, and GABA (50, 2, 20, and 3, respectively) at a volume of 1525 μL. Finally, 30 μL of tritonx100 ((1%, (v/v)) was added to the prior combination. We used 30 min of incubation at between 25 and 30 °C. Additionally, we used an ELISA plate reader to determine the absorbance of the combination at 340 nm (Multiskan SkyHigh Microplate Spectrophotometer). Specific activities of GABA-T were measured as OD 340/mg of protein·h.

GABA-T [9] = target: T1, GABA-T; experiment: In vitro GABA-T inhibition, larval homogenate; type: biochemical; conditions: fourth-instar larvae preparation, listed as salvianolic acid B
Procedure: The R. ferrugineus were homogenized larvae in a buffer (sodium phosphate, 40 mM, and pH 7.4); then, sodium chloride (10 mM dissolved in 1% (w/v) triton X-100) was added. During centrifugation (Sigma 3–30 KS), the homogenate was chilled to 4 °C and spun at a speed of 5000 rpm (20 min). The supernatant was either immediately put into action for an enzymatic test or frozen and kept at 20 °C for later use. […] The protein content was determined using the same protocol employed by Lowry with modification [93] using protein extract (100 µL) combined with an alkaline copper solution and a Folin–Ciocalteu phenol reagent (2 mL and 200 µL, respectively). The intensity of the resulting blue hue was evaluated during 30 min of incubation at 25 °C. Using an ELISA plate reader and a BSA standard curve, we could calculate the protein concentration by analyzing the absorbance at 600 nm (Multiskan SkyHigh Microplate Spectrophotometer, Thermo Fisher Scientific, Waltham, MA, USA).
The GABA-T activity was assessed with a modified version of the method published by [96]. The enzyme crude extract (25 μL) added to a solution included Tris-HCl, α-ketoglutarate, 2-mercaptoethanol, β-NAD, and GABA (50, 2, 20, and 3, respectively) at a volume of 1525 μL. […]

[10] = Rhynchophorus ferrugineus, 24 h, read-out: LC50

## COc1ccc(-c2cc(=O)c3c(O)c(OC)c(OC)cc3o2)cc1 [Salvigenin]
ACPs [1]; listed as salvigenin
  IC50 ACPs in vivo: < 330 µg/mL and 294.2 µg/mL
ACPs [2]; listed as salvigenin
  IC50 ACPs in vitro: 151.2 µg/mL (≈ 461 µM)
AChE [3]
  IC50 AChE in vivo: 258 ± 1.23 µg/mL
AChE [3]; listed as salvigenin
  IC50 AChE in vivo: 258.4 µg/mL
AChE [4]
  IC50 AChE in vitro: 130 ± 1.23 µg/mL
AChE [4]; listed as salvigenin
  IC50 AChE in vitro: 129.7 µg/mL
ALPs [5]
  IC50 ALP in vitro: 123 µg/mL (≈ 374 µM)
ALPs [5]; listed as salvigenin
  IC50 ALPs in vitro: < 200 µg/mL
[6]
  LD50: 10.8 (10.2–11.5) µg/Larvae
[6]; listed as salvigenin
  LD50: 10.8 µg/Larvae
R. ferrugineus adults; [10]
  LC50: 1140 µg/mL (≈ 3480 µM)
ALPs [7]; listed as salvigenin
  IC50 ALPs in vivo: 228.7 µg/mL

## C[C@H]1[C@H](C)CC[C@]2(C(=O)O)CC[C@]3(C)C(=CC[C@@H]4[C@@]5(C)CC[C@H](O)C(C)(C)[C@@H]5CC[C@]43C)[C@H]12 [Ursolic acid]
ACPs [1]; listed as ursolic acid
  IC50 ACPs in vivo: 392.4 µg/mL
ACPs [2]; listed as ursolic acid
  IC50 ACPs in vitro: 167.8 µg/mL (≈ 367 µM)
AChE [3]
  IC50 AChE in vivo: 458 ± 1.52 µg/mL
AChE [3]; listed as ursolic acid
  IC50 AChE in vivo: 457.8 µg/mL
AChE [4]
  IC50 AChE in vitro: 170 ± 1.52 µg/mL
AChE [4]; listed as ursolic acid
  IC50 AChE in vitro: 169.5 µg/mL
ALPs [5]
  IC50 ALP in vitro: 141 µg/mL (≈ 309 µM)
ALPs [5]; listed as ursolic acid
  IC50 ALPs in vitro: < 200 µg/mL
[6]
  LD50: 14.9 (13.6–15.4) µg/Larvae
[6]; listed as ursolic acid
  LD50: 14.9 µg/Larvae
R. ferrugineus adults; [10]
  LC50: 1120 µg/mL (≈ 2450 µM)
ALPs [7]; listed as ursolic acid
  IC50 ALPs in vivo: 476.9 µg/mL

## Salvianolic acid B
ACPs [1]
  IC50 ACPs in vivo: < 330 µg/mL and 182.3 µg/mL
ACPs [2]; listed as salvianolic acid B
  IC50 ACPs in vitro: 98.2 µg/mL
GABA-T [8]
  IC50 GABA-T in vivo: 324.8 µg/mL
GABA-T [9]
  IC50 GABA-T in vitro: 197.2 µg/mL
AChE [3]
  IC50 AChE in vivo: 229.7 µg/mL
AChE [4]
  IC50 AChE in vitro: 117 ± 1.08 µg/mL
AChE [4]; listed as salvianolic acid B
  IC50 AChE in vitro: 116.7 µg/mL
ALPs [5]
  IC50 ALP in vitro: 105 µg/mL
ALPs [5]; listed as salvianolic acid B
  IC50 ALPs in vitro: < 200 µg/mL
[6]
  LD50: 11.1 (10.1–12.18) µg/Larvae
[6]; listed as salvianolic acid B
  LD50: 11.1 µg/Larvae
R. ferrugineus adults
  LC50: 1195 (1121–1278) µg/mL
ALPs [7]
  IC50 ALPs in vivo: 194.6 µg/mL
